System: monoclonal antibody specific for methamphetamine
Assay: Microparticle agglutination immunoassay with conjugate (12) and methamphetamine antibody-coated particles, percent cross-reactivity
Type: binding
Conditions: methamphetamine antibody with conjugate (12)

| Compound | Cross-reactivity |
| --- | --- |
| CN[C@@H](C)Cc1ccccc1 [d-Methamphetamine] | good cross-reactivity |
| CCC(Cc1ccc2c(c1)OCO2)NC (centres unmarked) [MBDB, 3,4-methylenedioxyphenyl-N-methylbutanamine] | good cross-reactivity |
| CNC(C)Cc1ccc2c(c1)OCO2 (centres unmarked) [MDMA, 3,4-methylenedioxy-N-methylamphetamine] | good cross-reactivity |

System: monoclonal antibody NEAMP 48.2
Assay: Microparticle agglutination immunoassay with conjugate (12) and N-ethylamphetamine antibody-coated particles, percent cross-reactivity
Type: binding
Conditions: NEAMP 48.2 antibody with conjugate (12)
Method: The conjugate reagent was prepared as described in Example 16.
An antibody-coated microparticle was prepared as described in Example 16 using monoclonal antibody NEAMP 48.2 described in U.S. 2004/0077021. A microparticle reagent was then prepared as described in Example 16.
The assay was carried out on a Roche/Hitachi 917 analyzer as described in Example 16.
Percent cross-reactivity was determined in an ammunoassay. A standard curve was established using known amounts of the target analyte methylenedioxyethylamphetamine (MDEA). Known amounts of various amphetamine-related drugs were to be analyzed as samples in the immunoassay, and apparent concentrations of these drugs were generated from the standard curve. Apparent concentration of the drug, divided by actual concentration and multiplied by 100, is the percent cross-reactivity of this drug.

| Compound | Cross-reactivity |
| --- | --- |
| CN[C@@H](C)[C@@H](O)c1ccccc1 [d-pseudoephedrine] | essentially none |
| CCNC(C)Cc1ccc2c(c1)OCO2 (centres unmarked) [MDEA, 3,4-methylenedioxy-N-ethylamphetamine] | good cross-reactivity |
| CN[C@@H](C)[C@H](O)c1ccccc1 [l-ephedrine] | essentially none |
| NCCc1ccc(O)cc1 [Tyramine] | essentially none |
| CC(C)(N)Cc1ccccc1 [Phentermine] | essentially none |
